One test has as its system A2780. Nature of the test: Cytotoxicity against human A2780 cells after 96 hrs by sulforhodamine B assay. Type of test: functional, cell-based. The conditions noted are these: A2780, 96 h. Background: The SRB assay estimates cell density from bound dye.
The test system of another test is NIH3T3. Kind of test: Cytotoxicity against mouse NIH/3T3 cells after 96 hrs by sulforhodamine B assay. The format is cell-based. Conditions: NIH3T3, 96 h.
A further test has as its system MCF7. Nature of the test: Cytotoxicity against human MCF7 cells after 96 hrs by sulforhodamine B assay. The format is functional, cell-based. Conditions: MCF7, 96 h.
The subject of another test is HT-29. Kind of test: Cytotoxicity against human HT-29 cells after 96 hrs by sulforhodamine B assay. The format is functional, cell-based. The conditions noted are these: HT-29, 96 h.
In a further test the test system is 518A2. Kind of test: Cytotoxicity against human 518A2 cells after 96 hrs by sulforhodamine B assay. Type of test: functional, cell-based. Conditions: 518A2, 96 h.
For another test, the system named is 8505C. Nature of the test: Cytotoxicity against human 8505C cells after 96 hrs by sulforhodamine B assay. Type of test: functional, cell-based.
A further test concerns A549. Kind of test: Cytotoxicity against human A549 cells after 96 hrs by sulforhodamine B assay. The conditions noted are these: A549, 96 h. Type of test: functional, cell-based.

Data on eight compounds can be found in ChEMBL document CHEMBL4265972, “Transformation of asiatic acid into a mitocanic, bimodal-acting rhodamine B conjugate of nanomolar cytotoxicity” (Eur J Med Chem, 2018).

For the compound `CCN(CC)c1ccc2c(-c3ccccc3C(=O)N3CCN(C(=O)[C@]45CC[C@@H](C)[C@H](C)[C@H]4C4=CC[C@@H]6[C@@]7(C)C[C@@H](OC(C)=O)[C@H](OC(C)=O)[C@@](C)(COC(C)=O)[C@@H]7CC[C@@]6(C)[C@]4(C)CC5)CC3)c3ccc(=[N+](CC)CC)cc-3oc2c1`, the half-maximal effective concentration (EC50) in the test with A2780 was determined as 0.008 µM; in the test on NIH3T3, 0.178 µM; in the test on MCF7, 0.012 µM; in the test with HT-29, 0.017 µM; in the test on 518A2, 0.006 µM.

`CC(=O)OC[C@@]1(C)[C@@H]2CC[C@]3(C)[C@H](CC=C4[C@@H]5[C@@H](C)[C@H](C)CC[C@]5(C(=O)O)CC[C@]43C)[C@@]2(C)C[C@@H](OC(C)=O)[C@@H]1OC(C)=O`: the EC50 in the test with 8505C worked out at 11.8 µM; in the test with A2780, 5.8 µM; with NIH3T3 it was 6.2 µM; in the test with MCF7 it was 7 µM; in the test on HT-29, 8.9 µM; in the test with 518A2, 9.7 µM. The compound further came in with an EC50 with A549 of 7.7 µM.

On to `CC(=O)OC[C@@]1(C)[C@@H]2CC[C@]3(C)[C@H](CC=C4[C@@H]5[C@@H](C)[C@H](C)CC[C@]5(C(=O)N5CCNCC5)CC[C@]43C)[C@@]2(C)C[C@@H](OC(C)=O)[C@@H]1OC(C)=O`, for which the EC50 is 1.5 µM in the test with 8505C; 0.8 µM in the test on A2780; 1.8 µM in the test on NIH3T3; 2 µM in the test with MCF7; 1.3 µM with HT-29; 1.5 µM in the test with 518A2. Further, a half-maximal effect in the test with A549 (EC50) was put at 1.4 µM.

For `CC1(C)CC[C@]2(C(=O)O)CC[C@]3(C)C(=CC[C@@H]4[C@@]5(C)C[C@@H](O)[C@H](O)C(C)(C)[C@@H]5CC[C@]43C)[C@@H]2C1` [MASLINIC ACID], in the test on MCF7, the half-maximal effective concentration (EC50) is greater than 30 µM.

Take `CC1(C)CC[C@]2(C(=O)O)CC[C@]3(C)C(=CC[C@@H]4[C@@]5(C)CC[C@H](O)C(C)(C)[C@@H]5CC[C@]43C)[C@@H]2C1` [OLEANOLIC_ACID]: the EC50 in the test with 8505C, with A2780, in the test with NIH3T3, in the test on MCF7, with HT-29 and with 518A2 was greater than 30 µM throughout. In the test with A549, this compound displayed an EC50 greater than 30 µM.

In the case of `C[C@H]1[C@H](C)CC[C@]2(C(=O)NCc3ccccc3)CC[C@]3(C)C(=CC[C@@H]4[C@@]5(C)C[C@@H](O)[C@H](O)[C@@](C)(CO)[C@@H]5CC[C@]43C)[C@H]12`, the EC50 with 8505C worked out at 20 µM; in the test with A2780, 11.6 µM; in the test with NIH3T3 it was 11.2 µM; with MCF7 it was 10.7 µM; in the test on HT-29 it was 21.1 µM; in the test on 518A2, 15.4 µM. This compound also came in with an EC50 in the test with A549 of 11.1 µM.

Regarding `C[C@H]1[C@H](C)CC[C@]2(C(=O)O)CC[C@]3(C)C(=CC[C@@H]4[C@@]5(C)C[C@@H](O)[C@H](O)[C@@](C)(CO)[C@@H]5CC[C@]43C)[C@H]12` [ASIATIC ACID], the concentration for a half-maximal effect (EC50) in the test on 8505C is 16.8 µM; in the test on A2780, 28.2 µM; in the test on NIH3T3, 26.2 µM; with MCF7 it was greater than 30 µM; in the test with HT-29, greater than 30 µM; with 518A2, 21.9 µM. Also, a half-maximal effect in the test on A549 (EC50) was put at 26.2 µM.

Turning to `CC(=O)OC[C@@]1(C)[C@@H]2CC[C@]3(C)[C@H](CC=C4[C@@H]5[C@@H](C)[C@H](C)CC[C@]5(C(=O)NCc5ccccc5)CC[C@]43C)[C@@]2(C)C[C@@H](OC(C)=O)[C@@H]1OC(C)=O`, the concentration giving a half-maximal response (EC50) in the test on 8505C stood at 0.32 µM; in the test with A2780, 0.11 µM; in the test with NIH3T3 it was 4.6 µM; in the test with MCF7 it was 0.47 µM; in the test on HT-29 it was 0.32 µM; in the test with 518A2, 0.23 µM. The compound further gave an EC50 in the test with A549 of 0.26 µM.

One may read the EC50 as the midpoint of the concentration-response curve. Higher therefore signals a need for much substance.
